One experiment deals with T47D cells. Kind of experiment: Cellular Growth Inhibition Assay for T47D Cells (CellTiter-Glo). The format is cell-based, human. The following applies: 72 hours. The procedure:
Exemplary compounds were tested for ability to inhibit the proliferation of T47D cells. T47D cells are a commercially available human breast cancer cell line.
T47D cells were purchased from American Type Cell Culture (ATCC Cat #HTB-133) and then seeded on poly-D-lysine coated, black clear-bottom 384-well plates at 3000/well in 25 μL Dulbecco's Modified Eagle Medium (DMEM) supplemented with 10% w/w Fetal bovine serum (FBS), 0.2 units/mL recombinant human insulin (Gibco Cat #12585014), and 1% w/w Pen-Strep. Pen-Strep is a commercially available mixture of penicillin G and streptomycin, which is used in mammalian cell culture media to prevent bacterial contamination. Dulbecco's Modified Eagle Medium (DMEM) supplemented with 10% w/w fetal bovine serum (FBS), 0.2 units/mL recombinant human insulin, and 1% w/w Pen-Strep is herein referred to as Treatment Medium. Following seeding of cells in the plates, the plates were spun at 300×g for 30 seconds, then equilibrated to room temperature for 30 minutes, and then deposited in a humidified tissue culture incubator maintained at 37° C. with 5% CO2.
At 24 hours after seeding of the cells, dilutions of test compound were prepared in DMSO and dissolved in Treatment Medium, to achieve a final DMSO concentration of 0.5% w/w, thereby providing the Test Compound Solution. A 25 μL aliquot of the Test Compound Solution was added to cells in the well plates. An equal volume of a solution containing DMSO and Treatment Medium was used as a negative control. Following treatment of cells with Test Compound Solution or said equal volume of a solution containing DMSO and Treatment Medium, the plates were spun at 300×g for 30 seconds, and then left in an incubator for 72 hours.
At the end of the treatment duration, cell viability was quantified with CellTiter-Glo 2.0 reagent (Promega Cat #G9243). For this purpose, plates were equilibrated to room temperature for 30 minutes, and then 25 μL of CellTiter-Glo 2.0 reagent was added to cells in the plate wells. Plates were then agitated on a shaker for two minutes at 500 rpm and subsequently incubated at room temperature for 10 minutes. Following incubation, the plates were spun at 3000×g for 30 seconds, then sealed with an optical adhesive cover, and luminescence readings were measured with an EnVision Plate Reader (Perkin Elmer).
Data was normalized using zero luminescence for baseline. A four-parameter non-linear regression curve fit was applied to dose-response data in GraphPad Prism data analysis software to determine the half-maximal growth inhibitory concentration (GI50) for each test compound.
(ATP-based viability assays read luminescence as a measure of living cells.)

Experiment [1] concerns T-Rex 293 cell line SC3 cells lacking increased expression of androgen receptor protein. Nature of the experiment: Cellular growth inhibition, T-Rex 293 SC3 cells without doxycycline (no increased androgen receptor expression), CellTiter-Glo. The format is cell-based. To be noted: T-Rex 293 SC3 cells not exposed to doxycycline (no increased androgen receptor expression), 72 hours. The gist of the method:
(§1)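 Growth inhibition is measured in an inducible AR-expressing T-Rex 293 clone, SC3, cultured with or without 10 ng/mL doxycycline in hormone-depleted medium. Test compounds are applied for 72 hours. GI50 values derive from CellTiter-Glo 2.0 signal fitted by four-parameter regression.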

A further experiment has as its system VCaP cells. Kind of experiment: Cellular growth inhibition assay for VCaP cells, CellTiter-Glo. The format is cell-based, human. To be noted: 72 hours. The essentials: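 GI50 values come from four-parameter curve fits of luminescence data normalized to a zero baseline. Compound, in medium with 0.5% DMSO, was added one day after plating and left for 72 h before CellTiter-Glo 2.0 addition.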

Experiment [2] has as its system T-Rex 293 cell line SC3 cells having increased expression of androgen receptor protein due to exposure to doxycycline. Kind of experiment: Cellular growth inhibition, T-Rex 293 SC3 cells with doxycycline (increased androgen receptor expression), CellTiter-Glo. The format is cell-based. To be noted: T-Rex 293 SC3 cells with 10 ng/mL doxycycline (increased androgen receptor expression), 72 hours, CellTiter-Glo 2.0. The essentials: as §1

For the compound `Cn1cc(-c2cc(C(C)(C)O)ccc2Oc2ccc(C3(NC4CCN(c5ncc(C(=O)N[C@H]6C(C)(C)[C@H](Oc7ccc(C#N)c(Cl)c7)C6(C)C)cn5)CC4)COC3)cc2)c2cc[nH]c2c1=O` [Compound I-246], the GI50 (commonly the concentration giving 50% growth inhibition) in the experiment with T47D cells is 500 to 1500 nM; in experiment [1] it was less than 500 nM; in the experiment on VCaP cells it was less than 500 nM; in experiment [2] it was less than 500 nM.

As for `CCS(=O)(=O)c1ccc(Oc2ccc(OC3CC4(CCN(c5ncc(C(=O)N[C@H]6C(C)(C)[C@H](Oc7ccc(C#N)c(Cl)c7)C6(C)C)cn5)CC4)C3)c(F)c2)c(-c2cn(C)c(=O)c3[nH]ccc23)c1` [Compound I-283], the GI50 in the experiment on T47D cells (Homo sapiens) was less than 500 nM; in experiment [1] it was more than 3000 nM; with VCaP cells (Homo sapiens) it was less than 500 nM; in experiment [2], less than 500 nM.

With `Cn1cc(-c2cc(C(C)(C)O)ccc2OCC(CCCN2CCN(c3ncc(C(=O)N[C@H]4C(C)(C)[C@H](Oc5ccc(C#N)c(Cl)c5)C4(C)C)cn3)CC2)C2CC2)c2cc[nH]c2c1=O` (some centres unmarked) [Compound I-237], the GI50 in the experiment with T47D cells (Homo sapiens) is 500 to 1500 nM; in experiment [1] it was 500 to 1500 nM; in the experiment with VCaP cells (Homo sapiens) it was 500 to 1500 nM; in experiment [2] it was less than 500 nM.

As for `Cn1cc(-c2cc(C(C)(C)O)ccc2Oc2ccc(CCC3C4CN(c5ncc(C(=O)N[C@H]6C(C)(C)[C@H](Oc7ccc(C#N)c(Cl)c7)C6(C)C)cn5)CC34)cc2)c2cc[nH]c2c1=O` (some centres unmarked) [Compound I-286], the concentration for 50% growth inhibition (GI50) is less than 500 nM with T47D cells, 500 to 1500 nM in experiment [1], less than 500 nM in the experiment with VCaP cells and less than 500 nM in experiment [2].

As to `CCS(=O)(=O)Nc1ccc(Oc2cccc(OCC3CCN(c4ncc(C(=O)N[C@H]5C(C)(C)[C@H](Oc6ccc(C#N)c(Cl)c6)C5(C)C)cn4)CC3)c2)c(-c2cn(C)c(=O)c3[nH]ccc23)c1` [Compound I-25], the GI50 (with T47D cells (Homo sapiens); in experiment [1]; in the experiment on VCaP cells (Homo sapiens); in experiment [2]) was less than 500 nM each time.

Take `CC(C)c1ccc(Oc2cccc(N3CC(N4CCN(c5ncc(C(=O)N[C@H]6C(C)(C)[C@H](Oc7ccc(C#N)c(Cl)c7)C6(C)C)cn5)CC4)C3)c2)c(-c2cn(C)c(=O)c3[nH]ccc23)c1` [Compound I-122, N-[3-(3-chloro-4-cyano-phenoxy)-2,2,4,4-tetramethyl-cyclobutyl]-2-[4-[1-[3-[4-isopropyl-2-(6-methyl-7-oxo-1H-pyrrolo[2,3-c]pyridin-4-yl)phenoxy]phenyl]azetidin-3-yl]piperazin-1-yl]pyrimidine-5-carboxamide]: the GI50 is 500 to 1500 nM with T47D cells (Homo sapiens), more than 3000 nM in experiment [1], more than 3000 nM in the experiment on VCaP cells (Homo sapiens) and less than 500 nM in experiment [2].

In the case of `CCS(=O)(=O)c1ccc(OCC(CCOC2CCN(c3ncc(C(=O)N[C@H]4C(C)(C)[C@H](Oc5ccc(C#N)c(Cl)c5)C4(C)C)cn3)CC2)C2CC2)c(-c2cn(C)c(=O)c3[nH]ccc23)c1` (some centres unmarked) [Compound I-242], the GI50 (in the experiment on T47D cells; in experiment [1]; in the experiment with VCaP cells; in experiment [2]) was less than 500 nM in each case.

Turning to `CCS(=O)(=O)Nc1ccc(Oc2cccc(N3CC(OC4CCN(c5ncc(C(=O)N[C@H]6C(C)(C)[C@H](Oc7ccc(C#N)c(Cl)c7)C6(C)C)cn5)CC4)C3)c2)c(-c2cn(C)c(=O)c3[nH]ccc23)c1` [Compound I-181], the GI50 was less than 500 nM in the experiment with T47D cells, more than 3000 nM in experiment [1], less than 500 nM in the experiment on VCaP cells and less than 500 nM in experiment [2].

Turning to `Cn1cc(-c2cc(NS(=O)(=O)C3CC3)ccc2Oc2cccc(N3CC(OC4CCN(c5ncc(C(=O)N[C@H]6C(C)(C)[C@H](Oc7ccc(C#N)c(Cl)c7)C6(C)C)cn5)CC4)C3)c2F)c2cc[nH]c2c1=O` [Compound I-171], the GI50 is less than 500 nM in the experiment with T47D cells, more than 3000 nM in experiment [1], more than 3000 nM in the experiment on VCaP cells and less than 500 nM in experiment [2].

For the compound `CCS(=O)(=O)c1ccc(OC2CC(CCN3CCC4(CCN(c5ncc(C(=O)N[C@H]6C(C)(C)[C@H](Oc7ccc(C#N)c(Cl)c7)C6(C)C)cn5)C4)C3)C2)c(-c2cn(C)c(=O)c3[nH]ccc23)c1` (some centres unmarked) [Compound I-270, N-[3-(3-chloro-4-cyano-phenoxy)-2,2,4,4-tetramethyl-cyclobutyl]-2-[7-[2-[3-[4-ethylsulfonyl-2-(6-methyl-7-oxo-1H-pyrrolo[2,3-c]pyridin-4-yl)phenoxy]cyclobutyl]ethyl]-2,7-diazaspiro[4.4]nonan-2-yl]pyrimidine-5-carboxamide], the GI50 in the experiment with T47D cells (Homo sapiens) is less than 500 nM; in experiment [1] it was 500 to 1500 nM; in the experiment on VCaP cells (Homo sapiens) it was less than 500 nM; in experiment [2], less than 500 nM.

In the case of `CCS(=O)(=O)Nc1ccc(Oc2cccc(N3CCC(OC4CCN(c5ncc(C(=O)N[C@H]6C(C)(C)[C@H](Oc7ccc(C#N)c(Cl)c7)C6(C)C)cn5)CC4)CC3)c2)c(-c2cn(C)c(=O)c3[nH]ccc23)c1` [Compound I-82], the GI50 is less than 500 nM in the experiment on T47D cells (Homo sapiens), more than 3000 nM in experiment [1], less than 500 nM in the experiment with VCaP cells (Homo sapiens) and less than 500 nM in experiment [2].

As to `Cn1cc(-c2cc(C(C)(C)O)ccc2OC2CC3CC2CC3OC2CCN(c3ncc(C(=O)N[C@H]4C(C)(C)[C@H](Oc5ccc(C#N)c(Cl)c5)C4(C)C)cn3)CC2)c2cc[nH]c2c1=O` (some centres unmarked) [Compound I-253, N-[3-(3-chloro-4-cyano-phenoxy)-2,2,4,4-tetramethyl-cyclobutyl]-2-[4-[5-[4-(1-hydroxy-1-methyl-ethyl)-2-(6-methyl-7-oxo-1H-pyrrolo[2,3-c]pyridin-4-yl)phenoxy]norbornan-2-yl]oxy-1-piperidyl]pyrimidine-5-carboxamide], the GI50 with T47D cells (Homo sapiens) was 500 to 1500 nM; in the experiment with VCaP cells (Homo sapiens), less than 500 nM.

For the compound `Cn1cc(-c2cc(C(C)(C)O)ccc2Oc2ccc(C3(NCC4CCN(c5ncc(C(=O)N[C@H]6C(C)(C)[C@H](Oc7ccc(C#N)c(Cl)c7)C6(C)C)cn5)CC4)COC3)cc2)c2cc[nH]c2c1=O` [Compound I-256], the GI50 in the experiment with T47D cells and with VCaP cells was less than 500 nM in each case.

Turning to `Cn1cc(-c2cc(C(C)(C)O)ccc2OC(CCCCN2CCN(c3ncc(C(=O)N[C@H]4C(C)(C)[C@H](Oc5ccc(C#N)c(Cl)c5)C4(C)C)cn3)CC2)C2CC2)c2cc[nH]c2c1=O` (some centres unmarked) [Compound I-252], the GI50 was 500 to 1500 nM in the experiment with T47D cells and less than 500 nM in the experiment with VCaP cells.

As for `Cn1cc(-c2cc(C(C)(C)O)ccc2OC(C)(C)CN2CC(OC3CCN(c4ncc(C(=O)N[C@H]5C(C)(C)[C@H](Oc6ccc(C#N)c(Cl)c6)C5(C)C)cn4)CC3)C2)c2cc[nH]c2c1=O` [Compound I-254, N-[3-(3-chloro-4-cyano-phenoxy)-2,2,4,4-tetramethyl-cyclobutyl]-2-[4-[1-[2-[4-(1-hydroxy-1-methyl-ethyl)-2-(6-methyl-7-oxo-1H-pyrrolo[2,3-c]pyridin-4-yl)phenoxy]-2-methyl-propyl]azetidin-3-yl]oxy-1-piperidyl]pyrimidine-5-carboxamide], the GI50 is more than 3000 nM in the experiment on T47D cells (Homo sapiens) and less than 500 nM in the experiment on VCaP cells (Homo sapiens).

Turning to `Cn1cc(-c2cc(C(C)(C)O)ccc2Oc2ccc(F)c(CCCN3CC4(C3)CN(c3ncc(C(=O)N[C@H]5C(C)(C)[C@H](Oc6ccc(C#N)c(Cl)c6)C5(C)C)cn3)C4)c2F)c2cc[nH]c2c1=O` [Compound I-247], the GI50 in the experiment with T47D cells and in the experiment on VCaP cells was less than 500 nM throughout.

With `CCS(=O)(=O)c1ccc(Oc2cccc(CCCC3CCN(c4ncc(C(=O)N[C@H]5C(C)(C)[C@H](Oc6ccc(C#N)c(Cl)c6)C5(C)C)cn4)CC3)c2)c(-c2cn(C)c(=O)c3[nH]ccc23)c1` [Compound I-248], the GI50 is less than 500 nM in the experiment on T47D cells and 500 to 1500 nM with VCaP cells.

The values above are taken from patent US20250388605A1, “HETEROBIFUNCTIONAL COMPOUNDS AND METHODS OF TREATING DISEASE” (Halda Therapeutics OpCo, Inc., priority 2022, published 2025).
